{
  "source": "paper PMC4984800",
  "about": "“A first in man, dose-finding study of the mTORC1/mTORC2 inhibitor OSI-027 in patients with advanced solid malignancies” (British Journal of Cancer, 2016)",
  "key": {"mTORC2": {"tested_on": "mTORC2", "design": "method as in Bhagwat et al, 2011; Falcon et al, 2011", "conditions": "ref Bhagwat et al, 2011, Falcon et al; cited from earlier work"}, "[1]": {"tested_on": "p4EBP1 in tumour biopsies", "assay": "Paired tumour biopsies: p4EBP1 immunohistochemistry", "format": "in vivo, human", "description": "Drug-mediated inhibition of the mTORC1 and mTORC2 signalling was evaluated through assessing modulation of phospho-4EBP1 and phospho-PRAS40 in PBMC, as well as phospho-4EBP1 and phospho-S6 in tumour biopsies. Blood aliquots were collected prior to start dosing and at prespecified time points during the first course of treatment. Fresh tumour biopsies were obtained from selected patients during the dose escalation stage and from all patients in the expansion cohorts, at baseline and during cycle 1.\nDrug-mediated inhibition of mTORC1 and mTORC2 signalling by OSI-027 was assessed by measuring inhibition of their effectors p4EBP1 (Thr37/46) and pPRAS40 (Thr246), respectively, in PBMC. In addition, paired tumour biopsies at screening and during first month of therapy were used to study target modulation.\nIn 21 cases, pre- and postdose paired tumour biopsies were amenable for PD studies."}, "mTORC1": {"tested_on": "mTORC1", "design": "method as in Bhagwat et al, 2011; Falcon et al, 2011", "conditions": "ref Bhagwat et al, 2011, Falcon et al; cited from earlier work"}, "[2]": {"assay": "First-in-human trial: dose-limiting toxicities, adverse events, tolerability", "format": "in vivo", "text": "Three different schedules of administration were investigated during the dose-escalation phase: once daily for three consecutive days every week (Schedule 1 (S1)), once weekly (Schedule 2 (S2)) and continuous once daily (Schedule 3 (S3)). The primary objective of the study was to determine MTD and recommend a dose and schedule of OSI-027 for phase 2 trials. Secondary objectives included tolerability, safety and pharmacokinetics profile, assessment of pharmacodynamics and preliminary antitumour activity.\nDose escalation was pursued independently for each schedule following a 3+3 design. Escalation was permitted if <33% patients on a dose level experienced dose-limiting toxicities (DLT), defined as any non-haematological adverse event grade ⩾3 (NCI-CTCAE v3) related with the study drug occurring during the first cycle of treatment (21 days), with the exception of […] fatigue, nausea, vomiting and/or diarrhoea. In addition, absolute reduction ⩾15% on LVEF was also considered DLT. MTD was defined as the immediately lower dose level to the one where ⩾33% of patients experienced DLT.\nAdverse events and concomitant medications were recorded throughout the trial participation.\nGuidelines for dose modifications were implemented; drug administration was halted and/or dose was reduced for creatinine increase grade ⩾2 and/or if absolute values of LVEF fell ⩾15% from baseline. Permanent treatment discontinuation was mandated for LVEF drops ⩾20%."}},
  "data": [
    {"molecule": "COc1cccc2cc(-c3nc([C@H]4CC[C@H](C(=O)O)CC4)n4ncnc(N)c34)[nH]c12", "note": "[OSI-027]", "values": [
      {"measurement": "IC50", "setting": "mTORC2", "value": 65, "unit": "nM"},
      {"measurement": "average reduction in p4EBP1 IHC staining", "setting": "[1]; 90 mg—S1, paired tumour biopsies", "value": 22.3, "unit": "%"},
      {"measurement": "average reduction in p4EBP1 IHC staining", "setting": "[1]; 120 mg—S1, paired tumour biopsies", "value": 49.5, "unit": "%"},
      {"measurement": "average reduction in p4EBP1 IHC staining", "setting": "[1]; 240 mg—S2, paired tumour biopsies", "value": 67.6, "unit": "%"},
      {"measurement": "IC50", "setting": "mTORC1", "value": 22, "unit": "nM"},
      {"measurement": "highest potentially feasible dose", "setting": "[2]; S1, QD three consecutive days per week", "value": 120, "unit": "mg"},
      {"measurement": "MTD", "setting": "[2]; S2, once weekly, 10 to 240 mg QWK tested", "value": "Dose escalation was discontinued before a formal MTD was reached"},
      {"measurement": "MTD", "setting": "[2]; S3, continuous once daily", "value": 30, "unit": "mg QD"},
      {"measurement": "Maximum creatinine on treatment CTCAE grade 4, patients", "setting": "[2]; human, in vivo", "value": 0},
      {"measurement": "creatinine rise (increase of at least one grade in CTCAE v3), patients", "setting": "[2]; human, in vivo", "value": 26, "unit": "%"},
      {"measurement": "cutaneous toxicities, mainly grade 1–2 macular or maculo-papular rash, patients", "setting": "[2]; human, in vivo", "value": 25, "unit": "%"},
      {"measurement": "patients who discontinued drug permanently due to drug-related adverse events", "setting": "[2]; human, in vivo", "value": 8.1, "unit": "%"},
      {"measurement": "patients with a grade ⩾3 drug-related event", "setting": "[2]; human, in vivo", "value": 17, "unit": "%"},
      {"measurement": "patients with a drop in the LVEF", "setting": "[2]; human, in vivo, 3 weeks", "value": 38, "unit": "%"},
      {"measurement": "Dose limiting toxicity", "setting": "[2]; human, in vivo, 12 days", "value": "Elevated serum creatinine (G2)"},
      {"measurement": "Dose limiting toxicity", "setting": "[2]; human, in vivo, 13 days", "value": "Fatigue (G3)"},
      {"measurement": "Dose limiting toxicity", "setting": "[2]; human, in vivo, 14 days", "value": "Bone pain (G3)"},
      {"measurement": "Dose limiting toxicity", "setting": "[2]; human, in vivo, 15 days", "value": "Stress-induced cardiomyopathy (G3)"},
      {"measurement": "DLT grade 2 decreased LVEF", "setting": "[2]; human, in vivo, 21 days", "value": 1, "unit": "events"},
      {"measurement": "DLT grade 3 bone pain", "setting": "[2]; human, in vivo, 21 days", "value": 1, "unit": "events"},
      {"measurement": "DLT grade 3 cardiomyopathy", "setting": "[2]; human, in vivo, 21 days", "value": 1, "unit": "events"},
      {"measurement": "DLT grade 3 fatigue", "setting": "[2]; human, in vivo, 21 days", "value": 4, "unit": "events"},
      {"measurement": "DLT grade 3 hyperglycaemia", "setting": "[2]; human, in vivo, 21 days", "value": 1, "unit": "events"},
      {"measurement": "DLT grade 3 maculo-papular rash", "setting": "[2]; human, in vivo, 21 days", "value": 1, "unit": "events"},
      {"measurement": "DLT grade ⩾2 creatinine rise", "setting": "[2]; human, in vivo, 21 days", "value": 2, "unit": "events"},
      {"measurement": "Dose limiting toxicity", "setting": "[2]; human, in vivo, 21 days", "value": "Urticaria (G3)"},
      {"measurement": "patients with dose-limiting toxicities (DLT)", "setting": "[2]; human, in vivo, 21 days", "value": 11, "unit": "patients"},
      {"measurement": "Dose limiting toxicity", "setting": "[2]; human, in vivo, 22 days", "value": "Decreased LVEF (G2)"},
      {"measurement": "patients needing a dose reduction", "setting": "[2]; in vivo", "value": "over half of the patients"},
      {"measurement": "individuals who died during study participation", "setting": "[2]; including post-treatment 30 days follow-up, none judged drug-related", "value": "eight"}
    ]}
  ]
}
